Converted amounts (≈) assume the structure as drawn. Numbered stars: 1 amine (or outer) side, 2 acyl side, 3 side chain; on linkers, the order of the positions; unused ones are H or OH. Bridge positions count the residues as written; N and C are the ends. Square brackets hold non-standard residues; d marks the D form. Peptide text beside a SMILES is read from it. ξ: configuration not given here. Bip = N[C@@H](Cc1ccc(-c2ccccc2)cc1)C(=O)O; 2Nal = N[C@@H](Cc1ccc2ccccc2c1)C(=O)O; Cha = N[C@@H](CC1CCCCC1)C(=O)O; X1 = NC(CCN[*:2])C(=O)[*:1]; ξAoc(2) = CCCCCCC(N)C(=O)O; Aoc = NCCCCCCCC(=O)O; ξDab = NCCC(N)C(=O)O; Ahx = NCCCCCC(=O)O; GABA = NCCCC(=O)O
Experiments:
[1] = system: Staphylococcus aureus; experiment: Antimicrobial activity against methicillin-resistant Staphylococcus aureus ATCC 33591 by tube dilution method; type: functional
[2] = system: Escherichia coli; experiment: Antimicrobial activity against Escherichia coli ATCC 25922 by tube dilution method; type: functional
[3] = system: Enterococcus faecium; experiment: Antimicrobial activity against vancomycin-resistant Enterococcus faecium ATCC 700221 by tube dilution method; type: functional
[4] = system: Klebsiella pneumoniae; experiment: Antimicrobial activity against multidrug-resistant Klebsiella pneumoniae ATCC 700603 by tube dilution method; type: functional
[5] = system: Pseudomonas aeruginosa; experiment: Antimicrobial activity against Pseudomonas aeruginosa ATCC 27853 by tube dilution method; type: functional
[6] = system: Candida albicans; experiment: Antifungal activity against Candida albicans ATCC 200955 by tube dilution method; type: functional
[7] = system: Acinetobacter baumannii; experiment: Antimicrobial activity against multidrug-resistant Acinetobacter baumannii ATCC BAA-1605 by tube dilution method; type: functional
[8] = Toxicity in human erythrocytes assessed as hemolysis after 1 hr; type: cell-based, Erythrocyte
[9] = Toxicity in human erythrocytes assessed as hemolysis at 150 uM after 1 hr; type: cell-based, Erythrocyte; details: read-out: Activity

| SMILES | MIC [1] [µM] | MIC [2] [µM] | MIC [3] [µM] | MIC [4] [µM] | MIC [5] [µM] | MIC [6] [µM] | MIC [7] [µM] | EC50 at 1 hr [8] [µM] | hemolysis at 1 h, 150 µM [9] [%] |
| --- | --- | --- | --- | --- | --- | --- | --- | --- | --- |
| CC(C)C[C@@H]1NC(=O)C(N)CCNC(=O)CCCNC(=O)[C@H](Cc2ccc3ccccc3c2)NC(=O)[C@H](CCCNC(=N)N)NC(=O)[C@H](CC(C)C)NC(=O)[C@H](Cc2ccc3ccccc3c2)NC(=O)[C@H](CCCNC(=N)N)NC1=O (stereo not given in full) (H-[ξDab]LR[2Nal]LR[2Nal][GABA]; lactam 1-C) | 8 (≈ 8.95 µg/mL) | 32 (≈ 35.8 µg/mL) | 8 (≈ 8.95 µg/mL) | 64 (≈ 71.6 µg/mL) | 64 (≈ 71.6 µg/mL) | 32 (≈ 35.8 µg/mL) | 64 (≈ 71.6 µg/mL) | 420 | < 8 |
| CCCCCCC1NC(=O)[C@@H](Cc2ccc3ccccc3c2)NC(=O)[C@H](CCCNC(=N)N)NC(=O)[C@H](CC(C)C)NC(=O)CNC(=O)[C@H](Cc2ccc3ccccc3c2)NC(=O)[C@H](CCCNC(=N)N)NC1=O (stereo not given in full) | 8 (≈ 8.15 µg/mL) | 32 (≈ 32.6 µg/mL) | 8 (≈ 8.15 µg/mL) | 64 (≈ 65.2 µg/mL) | 64 (≈ 65.2 µg/mL) | 16 (≈ 16.3 µg/mL) | 64 (≈ 65.2 µg/mL) | 55 | 92 |
| CC(C)C[C@@H]1NC(=O)[C@H](Cc2ccc3ccccc3c2)NC(=O)[C@H](CCCNC(=N)N)NC(=O)[C@H]([C@@H](C)O)NC(=O)CNC(=O)[C@H](Cc2ccc3ccccc3c2)NC(=O)[C@H](CCCNC(=N)N)NC1=O (cyclo([2Nal]GTR[2Nal]LR)) | 32 (≈ 31.3 µg/mL) | > 128 | 64 (≈ 62.6 µg/mL) | > 128 | > 128 | 128 (≈ 125 µg/mL) | > 128 | > 150 | < 8 |
| CC(C)C[C@@H]1NC(=O)C(N)CCNC(=O)[C@H](Cc2ccc3ccccc3c2)NC(=O)[C@H](CCCNC(=N)N)NC(=O)[C@H](CC(C)C)NC(=O)[C@H](Cc2ccc3ccccc3c2)NC(=O)[C@H](CCCNC(=N)N)NC1=O (stereo not given in full) (H-[ξDab]LR[2Nal]LR[2Nal]; lactam 1-C) | 32 (≈ 33.1 µg/mL) | 64 (≈ 66.1 µg/mL) | 8 (≈ 8.27 µg/mL) | 64 (≈ 66.1 µg/mL) | 128 (≈ 132 µg/mL) | 16 (≈ 16.5 µg/mL) | > 128 | 265 | < 8 |
| CC(C)C[C@@H]1NC(=O)CNC(=O)[C@H](Cc2c[nH]c3ccccc23)NC(=O)[C@H](CCCCN)NC(=O)[C@H](CC(C)C)NC(=O)[C@H](Cc2c[nH]c3ccccc23)NC(=O)[C@H](CCCCN)NC1=O (cyclo(GLKWLKW)) | > 128 | 128 (≈ 117 µg/mL) | 128 (≈ 117 µg/mL) | > 128 | > 128 | > 128 | 128 (≈ 117 µg/mL) | > 150 | < 8 |
| CC(C)C[C@@H]1NC(=O)CNC(=O)[C@H](Cc2ccc3ccccc3c2)NC(=O)[C@H](CCCNC(=N)N)NC(=O)[C@H]([C@@H](C)O)NC(=O)[C@H](Cc2ccc3ccccc3c2)NC(=O)[C@H](CCCNC(=N)N)NC1=O (cyclo([2Nal]GLR[2Nal]TR)) | 128 (≈ 125 µg/mL) | 128 (≈ 125 µg/mL) | 128 (≈ 125 µg/mL) | > 128 | > 128 | 128 (≈ 125 µg/mL) | > 128 | > 150 | < 8 |
| CC(C)C[C@@H]1NC(=O)[C@H](Cc2ccc3ccccc3c2)NC(=O)[C@H](CCCNC(=N)N)NC(=O)[C@H](CCC(N)=O)NC(=O)CNC(=O)[C@H](Cc2ccc3ccccc3c2)NC(=O)[C@H](CCCNC(=N)N)NC1=O (cyclo([2Nal]GQR[2Nal]LR)) | 128 (≈ 129 µg/mL) | > 128 | 16 (≈ 16.1 µg/mL) | > 128 | > 128 | 128 (≈ 129 µg/mL) | > 128 | > 150 | < 8 |
| CC[C@H](C)[C@@H]1NC(=O)[C@H](Cc2ccc3ccccc3c2)NC(=O)[C@H](CCCNC(=N)N)NC(=O)[C@H]([C@@H](C)O)NC(=O)CCCCCCCNC(=O)[C@H](Cc2ccc3ccccc3c2)NC(=O)[C@H](CCCNC(=N)N)NC1=O (cyclo([2Nal][Aoc]TR[2Nal]IR)) | 32 (≈ 34 µg/mL) | 128 (≈ 136 µg/mL) | 16 (≈ 17 µg/mL) | > 128 | > 128 | 64 (≈ 68 µg/mL) | 128 (≈ 136 µg/mL) | > 150 | 10 |
| CC(C)C[C@@H]1NC(=O)CCCCCNC(=O)[C@H](Cc2ccc3ccccc3c2)NC(=O)[C@H](CCCNC(=N)N)NC(=O)[C@H](CC(C)C)NC(=O)[C@H](Cc2ccc3ccccc3c2)NC(=O)[C@H](CCCNC(=N)N)NC1=O (cyclo([2Nal][Ahx]LR[2Nal]LR)) | 8 (≈ 8.37 µg/mL) | 32 (≈ 33.5 µg/mL) | 4 (≈ 4.19 µg/mL) | 128 (≈ 134 µg/mL) | 64 (≈ 67 µg/mL) | 16 (≈ 16.7 µg/mL) | 64 (≈ 67 µg/mL) | 115 | 75 |
| CC(C)C[C@@H]1NC(=O)[C@H](Cc2ccc3ccccc3c2)NC(=O)[C@H](CCCNC(=N)N)NC(=O)[C@@H]2CCCN2C(=O)CNC(=O)[C@H](Cc2ccc3ccccc3c2)NC(=O)[C@H](CCCNC(=N)N)NC1=O (cyclo([2Nal]GPR[2Nal]LR)) | 64 (≈ 62.3 µg/mL) | > 128 | 16 (≈ 15.6 µg/mL) | > 128 | 128 (≈ 125 µg/mL) | 64 (≈ 62.3 µg/mL) | > 128 | > 150 | < 8 |
| CCCCCC[C@H]1NC(=O)[C@H](Cc2ccc3ccccc3c2)NC(=O)[C@H](CCCNC(=N)N)NC(=O)[C@H](CC(C)C)NC(=O)CNC(=O)[C@H](Cc2ccc3ccccc3c2)NC(=O)[C@H](CCCNC(=N)N)NC1=O | 8 (≈ 8.15 µg/mL) | 32 (≈ 32.6 µg/mL) | 8 (≈ 8.15 µg/mL) | 64 (≈ 65.2 µg/mL) | 64 (≈ 65.2 µg/mL) | 16 (≈ 16.3 µg/mL) | 32 (≈ 32.6 µg/mL) | 55 | 100 |
| CC(C)C[C@@H]1NC(=O)CNC(=O)[C@H](Cc2ccc3ccccc3c2)NC(=O)[C@H](CCCNC(=N)N)NC(=O)[C@H](CC2CCCCC2)NC(=O)[C@H](Cc2ccc3ccccc3c2)NC(=O)[C@H](CCCNC(=N)N)NC1=O (cyclo([2Nal][Cha]R[2Nal]GLR)) | 8 (≈ 8.24 µg/mL) | 16 (≈ 16.5 µg/mL) | 16 (≈ 16.5 µg/mL) | 64 (≈ 65.9 µg/mL) | 128 (≈ 132 µg/mL) | 16 (≈ 16.5 µg/mL) | 64 (≈ 65.9 µg/mL) | 60 | 96 |
| CC(C)C[C@@H]1NC(=O)CNC(=O)[C@H](Cc2ccc(-c3ccccc3)cc2)NC(=O)[C@H](CCCNC(=N)N)NC(=O)[C@H](CC(C)C)NC(=O)[C@H](Cc2ccc(-c3ccccc3)cc2)NC(=O)[C@H](CCCNC(=N)N)NC1=O (cyclo([Bip]GLR[Bip]LR)) | 8 (≈ 8.34 µg/mL) | 16 (≈ 16.7 µg/mL) | 8 (≈ 8.34 µg/mL) | 32 (≈ 33.4 µg/mL) | 64 (≈ 66.7 µg/mL) | 16 (≈ 16.7 µg/mL) | 32 (≈ 33.4 µg/mL) | 16 | 96 |
| CCCCCCC1NC(=O)[C@H](Cc2ccc3ccccc3c2)NC(=O)[C@H](CCCNC(=N)N)NC(=O)[C@H](CC(C)C)NC(=O)C(N)CCNC(=O)C(N)CCNC(=O)[C@H](Cc2ccc3ccccc3c2)NC(=O)[C@H](CCCNC(=N)N)NC1=O (stereo not given in full) (H-[ξDab]LR[2Nal][ξAoc(2)]R[2Nal]; linker 1-C via X1) | 4 (≈ 4.65 µg/mL) | 16 (≈ 18.6 µg/mL) | 4 (≈ 4.65 µg/mL) | 64 (≈ 74.3 µg/mL) | 32 (≈ 37.2 µg/mL) | 8 (≈ 9.29 µg/mL) | 64 (≈ 74.3 µg/mL) | 55 | 100 |
| CC(C)C[C@@H]1NC(=O)CNC(=O)[C@@H](Cc2ccc3ccccc3c2)NC(=O)[C@H](CCCNC(=N)N)NC(=O)[C@H](CC(C)C)NC(=O)[C@H](Cc2ccc3ccccc3c2)NC(=O)[C@H](CCCNC(=N)N)NC1=O | 32 (≈ 31.7 µg/mL) | 128 (≈ 127 µg/mL) | 16 (≈ 15.8 µg/mL) | > 128 | > 128 | 64 (≈ 63.4 µg/mL) | 128 (≈ 127 µg/mL) | > 150 | < 8 |

Reference: ChEMBL document CHEMBL4000149, “The effect of glycine replacement with flexible ω-amino acids on the antimicrobial and haemolytic activity of an amphipathic cyclic heptapeptide” (Eur J Med Chem, 2015)
